The numbers were not newly measured in patent US6218375A, “Complex of ras-farnesyltransferase inhibitor and sulfobutylether-7-β-cyclodextrin or 2-hydroxypropyl-β-cyclodextrin and method” (priority 2000, dated 2001), which cites them from elsewhere.

For data set [1] the following is noted: by cyclodextrins.
For data set [2] the following is noted: by β-cyclodextrin.
The conditions of data set [3]: complexes with cyclodextrin derivatives, sublingual or buccal route.

In the case of `CCN(CC)CCOC(=O)C(c1ccccc1)c1ccccc1` [adipherine], the water-solubility result in data set [1] was “increase water-solubility”.

Regarding `C=CCS[S+]([O-])CC=C` (centres unmarked) [allicin], the stabilization result in data set [2] is on record as “increases stabilization”.

As to `CC(C)C12C=CC(C)(CC1)OO2` (centres unmarked) [ascaridole], in data set [2], the stabilization entry was “increases stabilization”.

Consider `CC(=O)Oc1ccccc1C(=O)O` [aspirin], for which the water-solubility entry in data set [1] is “increase water-solubility”.

Take `CCOC(=O)c1ccc(N)cc1` [benzocaine]: in data set [2], the stabilization entry is “increases stabilization”. For the same molecule, the water-solubility result in data set [1] is on record as “increase water-solubility”.

Turning to `C[C@]12CC[C@@H]3c4ccc(O)cc4CC[C@H]3[C@@H]1CC[C@@H]2O` [estradiol], in data set [3], the elimination result is given as “only gradual elimination” and the “transfer into the systemic circulation” value is reported as “effective transfer of these hormones into the systemic circulation”.

On to `COc1ccc2c(c1)c(CC(=O)O)c(C)n2C(=O)c1ccc(Cl)cc1` [indomethacin], for which the stabilization result in data set [2] was “increases stabilization”.

Consider `CCCCC/C=C\C/C=C\CCCCCCCC(=O)O` [linoleic acid], for which the stabilization result in data set [2] is given as “increases stabilization”.

For `O=[N+]([O-])OCC(CO[N+](=O)[O-])O[N+](=O)[O-]` [nitroglycerin], in data set [2], the stabilization result is on record as “increases stabilization”.

As to `CCN(CC)CCOC(=O)c1ccc(N)cc1` [procaine], the stabilization result in data set [2] is given as “increases stabilization”. For the same molecule, the water-solubility entry in data set [1] is “increase water-solubility”.

With `CC(=O)[C@H]1CC[C@H]2[C@@H]3CCC4=CC(=O)CC[C@]4(C)[C@H]3CC[C@]12C` [progesterone], in data set [3], the elimination result was “only gradual elimination” and the “transfer into the systemic circulation” value is “effective transfer of these hormones into the systemic circulation”.

For the molecule `O=C(O)c1ccccc1O` [salicyclic acid], in data set [2], the stabilization result was “increases stabilization”.

In the case of `C[C@]12CC[C@H]3[C@@H](CCC4=CC(=O)CC[C@@]43C)[C@@H]1CC[C@@H]2O` [testosterone], in data set [3], the elimination result is “only gradual elimination” and the “transfer into the systemic circulation” value is recorded as “effective transfer of these hormones into the systemic circulation”. Besides, the water-solubility entry in data set [1] is “increase water-solubility”.

As to `C=C1CC[C@H](O)C/C1=C/C=C1\CCC[C@]2(C)[C@@H]([C@H](C)CCCC(C)C)CC[C@@H]12` [vitamin D3], the water-solubility result in data set [1] is on record as “increase water-solubility”.
